Experimental data taken from ChEMBL document CHEMBL2176918, “Design and optimization of pyrazinecarboxamide-based inhibitors of diacylglycerol acyltransferase 1 (DGAT1) leading to a clinical candidate dimethylpyrazinecarboxamide phenylcyclohexylacetic acid (AZD7687)” (J Med Chem, 2012).
Values after ≈ are worked out from the molar mass of the structure shown. Values belong to the compound of their own block, whether it stands above or below them.

Tests used:
[1] = Lipophilicity, log D of the compound at pH 7.4 by chromatographic method; conditions: buffer
[2] = target: T1, Diacylglycerol O-acyltransferase 1 (Homo sapiens, UniProt O75907)
T1 sequence (O75907 whole entry): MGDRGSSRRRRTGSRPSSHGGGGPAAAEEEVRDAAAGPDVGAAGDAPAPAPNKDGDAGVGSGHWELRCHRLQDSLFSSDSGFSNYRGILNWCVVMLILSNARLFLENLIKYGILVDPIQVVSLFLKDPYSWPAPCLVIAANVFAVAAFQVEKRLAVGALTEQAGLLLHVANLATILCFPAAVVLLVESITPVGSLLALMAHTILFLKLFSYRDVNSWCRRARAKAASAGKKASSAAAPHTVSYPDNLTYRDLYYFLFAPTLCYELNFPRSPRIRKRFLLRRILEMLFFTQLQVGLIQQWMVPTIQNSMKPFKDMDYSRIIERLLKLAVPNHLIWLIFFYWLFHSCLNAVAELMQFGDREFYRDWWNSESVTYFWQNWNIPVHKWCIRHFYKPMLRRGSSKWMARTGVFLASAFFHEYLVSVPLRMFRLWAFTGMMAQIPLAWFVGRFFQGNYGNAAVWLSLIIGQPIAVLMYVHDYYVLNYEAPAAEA
Description: (§1) Inhibition of human recombinant DGAT1 expressed in Sf9 cells by liquid scintillography

[3] = Apparent permeability from apical to basolateral side in MDCK cells at pH 7.4; conditions: dog
[4] = Intrinsic clearance in rat hepatocytes assessed as parent compound disappearance at 1 uM per 10^6 cells; type: ADME, cell-based, Hepatocyte; conditions: read-out: CLH
[5] = Fraction unbound in human plasma at 37 degC by LC-UV/MS method based equilibrium dialysis method
[6] = Half life in Han-Wistar rat at 2.54 to 5.4 uM/kg, po; type: ADME, organism-based; conditions: in vivo
[7] = Solubility in 0.1 M phosphate buffer at pH 7.4 at 25 degC incubated for 24 hrs
[8] = target: T2, Sterol O-acyltransferase 1 (Homo sapiens, UniProt P35610)
T2 sequence (P35610 whole entry): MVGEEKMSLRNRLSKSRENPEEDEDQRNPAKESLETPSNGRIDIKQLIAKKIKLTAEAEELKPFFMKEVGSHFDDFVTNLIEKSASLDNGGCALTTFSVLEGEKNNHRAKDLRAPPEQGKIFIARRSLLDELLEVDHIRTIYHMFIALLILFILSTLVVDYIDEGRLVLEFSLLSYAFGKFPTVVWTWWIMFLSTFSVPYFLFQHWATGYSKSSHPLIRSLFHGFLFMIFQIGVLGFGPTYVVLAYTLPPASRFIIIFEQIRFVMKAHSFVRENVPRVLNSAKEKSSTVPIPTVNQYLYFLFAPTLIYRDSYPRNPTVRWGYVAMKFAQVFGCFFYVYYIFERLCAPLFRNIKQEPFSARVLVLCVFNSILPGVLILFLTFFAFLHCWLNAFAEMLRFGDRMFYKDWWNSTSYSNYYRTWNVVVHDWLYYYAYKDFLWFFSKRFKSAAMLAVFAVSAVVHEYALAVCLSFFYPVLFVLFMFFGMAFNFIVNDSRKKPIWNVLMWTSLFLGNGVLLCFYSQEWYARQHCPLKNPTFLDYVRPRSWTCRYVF
Description: Inhibition of human ACAT1 by liquid scintillography

[9] = Apparent permeability from apical to basolateral side in human Caco2 cells at pH 7.4; type: ADME, cell-based; conditions: Caco-2, pH 7.4
[10] = Octanol/water partition coefficient, log D of the compound at pH 7.4; type: physicochemical
[11] = target: T1, Diacylglycerol O-acyltransferase 1; conditions: sf9
Description: as §1

SMILES: N=C(N)c1cncc(-c2ccc([C@H]3CC[C@H](CC(=O)O)CC3)cc2)n1
- chromatographic logD [1]: < 0
- IC50 [2]: > 33 µM

SMILES: Cc1nc(C)c(-c2ccc(C34CCC(C(=O)O)(CC3)CC4)cc2)nc1C(N)=O
- half-life [6]: 7.3 h
- Papp A→B [3]: 13 ×10⁻⁶ cm/s
- hepatocyte CLint at 1 µM [4]: < 2 µL/min/1e6 cells
- fraction unbound [5]: 0.006
- solubility at 24 h [7]: 113 µM (≈ 42.9 µg/mL)
- chromatographic logD [1]: 1.6
- IC50 [8]: 15 µM
- IC50 [2]: 0.08 µM

SMILES: NC(=O)c1cncc(-c2ccc([C@H]3CC[C@H](CCO)CC3)cc2)n1
- Papp A→B [9]: 38 ×10⁻⁶ cm/s
- hepatocyte CLint at 1 µM [4]: 36 µL/min/1e6 cells
- fraction unbound [5]: 0.028
- solubility at 24 h [7]: 3 µM (≈ 0.976 µg/mL)
- chromatographic logD [1]: 2.3
- IC50 [2]: 1.2 µM

SMILES: Cc1ccc(C(N)=O)nc1-c1ccc([C@H]2CC[C@H](CC(=O)O)CC2)cc1
- chromatographic logD [1]: 1.3

SMILES: NC(=O)c1cncc(-c2ccc([C@H]3CC[C@H](CC(=O)O)CC3)cc2)c1
- chromatographic logD [1]: 0

SMILES: Cc1nc(C)c(-c2ccc3c(c2)CC[C@]32CC[C@@H](c3nnn[nH]3)CC2)nc1C(N)=O
- chromatographic logD [1]: 1.4

SMILES: NC(=O)C[C@H]1CC[C@H](c2ccc(-c3cncc(C(N)=O)n3)cc2)CC1
- Papp A→B [9]: 13 ×10⁻⁶ cm/s
- solubility at 24 h [7]: < 1 µM
- chromatographic logD [1]: 0.9
- IC50 [2]: 1.9 µM

SMILES: NCc1cncc(-c2ccc([C@H]3CC[C@H](CC(=O)O)CC3)cc2)n1
- chromatographic logD [1]: < 0
- IC50 [11]: Not Active

SMILES: CNC(=O)c1cnc(C)c(-c2ccc([C@H]3CC[C@H](CC(=O)O)CC3)cc2)n1
- chromatographic logD [1]: 0.9
- IC50 [11]: Not Active

SMILES: Cc1ncc(C(N)=O)nc1-c1ccc([C@H]2CC[C@H](C(=O)O)CC2)cc1
- hepatocyte CLint at 1 µM [4]: 72 µL/min/1e6 cells
- solubility at 24 h [7]: 1200 µM (≈ 407 µg/mL)
- chromatographic logD [1]: 0.22

SMILES: Cc1nc(C)c(-c2ccc(C34CCC(CC(=O)O)(CC3)CC4)cc2)nc1C(N)=O
- chromatographic logD [1]: 1.3

SMILES: Cc1ncc(C(=O)NCc2ccccc2)nc1-c1ccc([C@H]2CC[C@H](CC(=O)O)CC2)cc1
- chromatographic logD [1]: 2.7
- IC50 [11]: Not Active

SMILES: N#C/N=C(\N)c1cncc(-c2ccc([C@H]3CC[C@H](CC(=O)O)CC3)cc2)n1
- chromatographic logD [1]: 1.2
- IC50 [11]: Not Active

SMILES: Cc1ncc(C(=O)O)nc1-c1ccc([C@H]2CC[C@H](CC(=O)O)CC2)cc1
- chromatographic logD [1]: < 0
- IC50 [11]: Not Active

SMILES: Cc1nc(C)c(-c2ccc3c(c2)CC[C@]32CC[C@@H](Cc3nnn[nH]3)CC2)nc1C(N)=O
- chromatographic logD [1]: 2

SMILES: Cc1ncc(C(=O)N2CCOCC2)nc1-c1ccc([C@H]2CC[C@H](CC(=O)O)CC2)cc1
- chromatographic logD [1]: 0.7
- IC50 [11]: Not Active

SMILES: Cc1ncc(C(=O)N(C)C)nc1-c1ccc([C@H]2CC[C@H](CC(=O)O)CC2)cc1
- chromatographic logD [1]: 0.7
- IC50 [11]: Not Active

SMILES: CC(C)(NC(=O)C[C@H]1CC[C@H](c2ccc(-c3cncc(C(N)=O)n3)cc2)CC1)C(=O)O
- hepatocyte CLint at 1 µM [4]: < 2 µL/min/1e6 cells
- solubility at 24 h [7]: > 100 µM
- chromatographic logD [1]: < 0.1
- IC50 [2]: 1.1 µM

SMILES: NC(=O)c1nc(-c2ccc([C@H]3CC[C@H](CC(=O)O)CC3)cc2)cnc1N
- chromatographic logD [1]: 0.5
- IC50 [2]: > 10 µM

SMILES: NC(=O)c1cccc(-c2ccc([C@H]3CC[C@H](CC(=O)O)CC3)cc2)n1
- chromatographic logD [1]: 0.8

SMILES: Cc1ncc(C(N)=S)nc1-c1ccc([C@H]2CC[C@H](CC(=O)O)CC2)cc1
- chromatographic logD [1]: 1.8

Results, then the compound that gave them:

- chromatographic logD [1]: 2.6
- IC50 [2]: > 10 µM
SMILES: Cc1nc(C(C)C)c(C(N)=O)nc1-c1ccc([C@H]2CC[C@H](CC(=O)O)CC2)cc1

- chromatographic logD [1]: 1.8
SMILES: Cc1nc(C)c(-c2ccc([C@H]3CC[C@H](CC(=O)O)CC3)c(Cl)c2)nc1C(N)=O

- Papp A→B [3]: 18 ×10⁻⁶ cm/s
- hepatocyte CLint at 1 µM [4]: 77 µL/min/1e6 cells
- fraction unbound [5]: 0.13
- chromatographic logD [1]: 1.7
SMILES: Cc1nc(C)c(-c2ccc([C@H]3CC[C@H](CC(N)=O)CC3)cc2)nc1C(N)=O

- chromatographic logD [1]: 1.4
SMILES: Cc1nc(C(F)F)c(C(N)=O)nc1-c1ccc([C@H]2CC[C@H](CC(=O)O)CC2)cc1

- logD [10]: 1
SMILES: Cc1ncc(-c2ccc([C@H]3CC[C@H](CC(=O)O)CC3)cc2)nc1C(N)=O

- Papp A→B [9]: 35 ×10⁻⁶ cm/s
- hepatocyte CLint at 1 µM [4]: < 6 µL/min/1e6 cells
- solubility at 24 h [7]: > 100 µM
- chromatographic logD [1]: 0.3
- IC50 [8]: > 33 µM
- IC50 [2]: 0.31 µM
SMILES: Cc1ncc(C(N)=O)nc1-c1ccc([C@H]2CC[C@H](CC(=O)O)CC2)cc1

- chromatographic logD [1]: 1.7
- IC50 [2]: > 9.1 µM
SMILES: CCc1nc(C)c(C(N)=O)nc1-c1ccc([C@H]2CC[C@H](CC(=O)O)CC2)cc1

- half-life [6]: 9 h
- hepatocyte CLint at 1 µM [4]: < 2 µL/min/1e6 cells
- fraction unbound [5]: 0.009
SMILES: Cc1nc(C)c(-c2ccc([C@H]3CC[C@H](Cc4nnn[nH]4)CC3)cc2)nc1C(N)=O

- chromatographic logD [1]: 2.5
- IC50 [2]: > 10 µM
SMILES: Cc1nc(-c2ccccc2)c(-c2ccc([C@H]3CC[C@H](CC(=O)O)CC3)cc2)nc1C(N)=O

- IC50 [11]: Not Active
SMILES: Cc1nc(C)c(-c2ccc([C@H]3CC[C@H](CC(=O)O)CC3)cc2)nc1C(=O)O

- Papp A→B [9]: 2 ×10⁻⁶ cm/s
- hepatocyte CLint at 1 µM [4]: 17 µL/min/1e6 cells
- solubility at 24 h [7]: 100 µM (≈ 44.5 µg/mL)
- chromatographic logD [1]: 0.9
- IC50 [2]: 0.1 µM
SMILES: Cc1nc(C)c(-c2ccc([C@H]3CC[C@H](CC(=O)NS(C)(=O)=O)CC3)cc2)nc1C(N)=O

- logD [10]: 1.6
SMILES: Cc1nc(C)c(-c2ccc([C@H]3CC[C@H](CCC(=O)O)CC3)cc2)nc1C(N)=O

- chromatographic logD [1]: 2
- IC50 [2]: > 10 µM
SMILES: Cc1nc(-c2ccccc2)c(C(N)=O)nc1-c1ccc([C@H]2CC[C@H](CC(=O)O)CC2)cc1

- chromatographic logD [1]: 1.2
SMILES: Cc1nc(C)c(-c2ccc([C@H]3CC[C@@H](CC(=O)O)CC3)c(F)c2)nc1C(N)=O

- half-life [6]: 7.5 h
- Papp A→B [3]: 12 ×10⁻⁶ cm/s
- hepatocyte CLint at 1 µM [4]: < 2 µL/min/1e6 cells
- fraction unbound [5]: 0.013
- solubility at 24 h [7]: 562 µM (≈ 221 µg/mL)
- IC50 [8]: 2.4 µM
- IC50 [2]: 0.03 µM
SMILES: Cc1nc(C)c(-c2ccc3c(c2)CC[C@]32CC[C@@H](CC(=O)O)CC2)nc1C(N)=O

- IC50 [2]: 0.43 µM
SMILES: Cc1nc(C)c(-c2ccc([C@H]3CC[C@@H](CC(=O)O)CC3)cc2)nc1C(N)=O

- chromatographic logD [1]: 1.3
SMILES: Cc1nc(C)c(-c2ccc([C@H]3CC[C@H](CC(=O)O)CC3)c(F)c2)nc1C(N)=O

- chromatographic logD [1]: 1.5
SMILES: CCc1nc(C)c(-c2ccc([C@H]3CC[C@H](CC(=O)O)CC3)cc2)nc1C(N)=O

- chromatographic logD [1]: 1.5
SMILES: Cc1nc(C)c(-c2ccc([C@H]3CC[C@@H](CC(=O)O)CC3)c(Cl)c2)nc1C(N)=O

- chromatographic logD [1]: 2.6
- IC50 [2]: > 10 µM
SMILES: Cc1nc(C(C)C)c(-c2ccc([C@H]3CC[C@H](CC(=O)O)CC3)cc2)nc1C(N)=O

- Papp A→B [9]: 58 ×10⁻⁶ cm/s
- solubility at 24 h [7]: 4 µM (≈ 1.41 µg/mL)
- chromatographic logD [1]: 3.1
- IC50 [2]: 0.69 µM
SMILES: Cc1nc(C)c(-c2ccc([C@H]3CC[C@H](CCO)CC3)cc2)nc1C(N)=O
